In ChEMBL document CHEMBL2375305, “Synthesis of novel triterpene and N-allylated/N-alkylated niacin hybrids as α-glucosidase inhibitors” (Eur J Med Chem, 2013):
Active and inactive are the calls of the source. No cut-off for these calls is given here.

Legend:
[1] = species: Homo sapiens; assay: (§1) Inhibition of alpha-glucosidase (unknown origin) using PNPG as substrate incubated for 10 mins prior to substrate addition measured every 30 secs for 5 mins relative to control
[2] = species: Homo sapiens; assay: Ratio of compound activity to acarbose activity for inhibition of alpha-glucosidase (unknown origin)
[3] = species: Homo sapiens; assay: Non-competitive inhibition of alpha-glucosidase (unknown origin) using PNPG as substrate at 2 to 6 uM by Lineweaver-Burk plot analysis
[4] = species: Homo sapiens; assay: Binding affinity to alpha-glucosidase (unknown origin) assessed as loss in secondary structure at 50 to 250 uM measured every 1 sec for 1 to 2 mins by CD spectroscopic analysis
[5] = test system: Rattus norvegicus; assay: Antihyperglycemic activity in sucrose-loaded STZ-induced diabetic rat model assessed as reduction in blood glucose level at 100 mg/kg, po administered 30 mins followed by sucrose administration measured after 5 hrs relative to vehicle-treated control; assay type: functional; parameters: scale not given: the % may be the effect or the level left
[6] = as §1; parameters: species or system Homo sapiens
[7] = species: Homo sapiens; assay: Inhibition of alpha-glucosidase (unknown origin) using PNPG as substrate at 100 uM incubated for 10 mins prior to substrate addition measured every 30 secs for 5 mins relative to control

Structure (SMILES)	inhibition [1]	inhibition [7] [%]	further results
CCCCCCCCCCCC[n+]1cccc(C(=O)O[C@H]2CC[C@]3(C)[C@H]4CC=C5[C@@H]6[C@@H](C)[C@H](C)CC[C@]6(C)CC[C@@]5(C)[C@]4(C)CC[C@H]3C2(C)C)c1	Dose-dependent effect		
CC(C)=CC[n+]1cccc(C(=O)O[C@H]2CC[C@]3(C)[C@H]4CC=C5[C@@H]6[C@@H](C)[C@H](C)CC[C@]6(C)CC[C@@]5(C)[C@]4(C)CC[C@H]3C2(C)C)c1.[Br-]	Dose-dependent effect		Ratio [2]: 10; inhibition [3]: Active; Activity [4]: Active; Activity [5]: 19.9%; IC50 [6]: 5 µM
CCCCCCCCCCCCCCCC[n+]1cccc(C(=O)O[C@H]2CC[C@]3(C)[C@H]4CC=C5[C@@H]6[C@@H](C)[C@H](C)CC[C@]6(C)CC[C@@]5(C)[C@]4(C)CC[C@H]3C2(C)C)c1	Dose-dependent effect		
C=C(C)[C@@H]1CC[C@]2(C)CC[C@]3(C)[C@@H](CC[C@@H]4[C@@]5(C)CC[C@H](OC(=O)c6ccc[n+](CCCCCCCCCCCCCCCC)c6)C(C)(C)[C@@H]5CC[C@]43C)[C@H]12		4.5	
C=C(C)[C@@H]1CC[C@]2(C)CC[C@]3(C)[C@@H](CC[C@@H]4[C@@]5(C)CC[C@H](OC(=O)c6ccc[n+](C/C=C(\C)CCC=C(C)C)c6)C(C)(C)[C@@H]5CC[C@]43C)[C@H]12		3.8	
CCCCCCCCCCCCC[n+]1cccc(C(=O)O[C@H]2CC[C@]3(C)[C@H]4CC=C5[C@@H]6[C@@H](C)[C@H](C)CC[C@]6(C)CC[C@@]5(C)[C@]4(C)CC[C@H]3C2(C)C)c1	Dose-dependent effect		
C=C(C)[C@@H]1CCC2(C)CC[C@]3(C)[C@@H](CC[C@@H]4[C@@]5(C)CC[C@H](OC(=O)c6ccc[n+](CCCCCCCCCCCC)c6)C(C)(C)[C@@H]5CC[C@]43C)[C@H]12 (single isomer, unassigned)		8.8	
C=C(C)[C@@H]1CC[C@]2(C)CC[C@]3(C)[C@@H](CC[C@@H]4[C@@]5(C)CC[C@H](OC(=O)c6ccc[n+](CC=C(C)C)c6)C(C)(C)[C@@H]5CC[C@]43C)[C@H]12		-4.4	
